Reference: patent US11224234B2, “Functional chocolate” (IMMD SP. Z.O.O., priority 2016, dated 2022)

Assay: Pharmacokinetics of trans-Resveratrol in human serum, crossover clinical study
Type: in vivo
Settings: single ingestion
Experimental: This was a crossover clinical study on 6 volunteers of 35-65 years old, 3 women and 3 men. It was a multi-arm trial with one-week interval between each arm. Prior to every experiment volunteers were asked not to consume food, which may contain fruit, vegetable or grain polyphenols and tomato-based products. In the morning of the experiment volunteers were asked to abstain from any food and drink only water. The serum of the vein blood was analysed. […] Firstly, a sample was collected before ingesting of a product, then every hour for 4 hours after ingestion. To assess the pharmacokinetics (PK) of t-RSV of our dark and milk chocolate with embedded bilberry and aronia extracts, we undertook a crossover clinical study with the same group of volunteers. On top of these we added into this crossover study a few more groups with Nutella spread where chocolate is only a small ingredient. The design of the study and the sample collection was the same as in the glucose postprandial study described above.

t-RSV AUC 0-4 hours: 105 to 380 ng/mL
t-RSV Max: 100 to 207 ng/mL
SMILES: Oc1ccc(/C=C/c2cc(O)cc(O)c2)cc1 [t-RSV capsule, trans-Resveratrol]
